Data from publication PMC3562592 (Journal of the American Chemical Society, 2012).

Target: T1, FAAH (Rattus norvegicus, UniProt P97612)
T1 sequence (P97612 1-579): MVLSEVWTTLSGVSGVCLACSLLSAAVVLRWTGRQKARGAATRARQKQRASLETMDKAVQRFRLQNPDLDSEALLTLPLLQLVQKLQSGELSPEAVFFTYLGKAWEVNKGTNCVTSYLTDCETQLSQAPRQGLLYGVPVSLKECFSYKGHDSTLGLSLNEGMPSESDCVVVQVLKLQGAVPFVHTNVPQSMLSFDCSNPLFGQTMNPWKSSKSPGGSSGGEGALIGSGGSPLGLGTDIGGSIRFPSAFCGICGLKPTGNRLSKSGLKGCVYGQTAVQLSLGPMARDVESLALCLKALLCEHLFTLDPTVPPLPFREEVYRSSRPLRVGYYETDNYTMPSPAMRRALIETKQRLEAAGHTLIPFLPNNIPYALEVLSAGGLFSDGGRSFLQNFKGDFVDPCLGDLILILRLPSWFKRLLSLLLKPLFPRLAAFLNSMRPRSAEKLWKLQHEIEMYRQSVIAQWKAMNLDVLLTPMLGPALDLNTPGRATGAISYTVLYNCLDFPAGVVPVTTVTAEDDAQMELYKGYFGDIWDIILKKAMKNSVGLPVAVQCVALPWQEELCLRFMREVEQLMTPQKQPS
Test: WaterLOGSY NMR binding to FAAH

CC(C(=O)O)c1ccc2c(c1)[nH]c1ccc(Cl)cc12 (racemic) [carprofen, (RS)-2-(6-chloro-9H-carbazol-2-yl)propanoic acid]
binding to FAAH (WaterLOGSY signals) (enzyme pre-incubated with URB597): did not alter such binding
binding to FAAH (WaterLOGSY signals) (without URB597): able to bind FAAH
